Data published in patent US7157083B2, “Compositions and methods for treating retroviral infections” (priority 1998, dated 2007).
Where two headings read alike, the source gives them in different places.

Key:
[1] = test system: HIV-1; conditions: Assay #8
Method: (§1) Reverse transcriptase (RT) activity was measured in cell-free supernatants. Tritiated thymidine triphosphate (NEN) (TTP) was resuspended in distilled H2O at 5 Cl/mL. Poly rA and oligo dT were prepared as a stock solution which was kept at −20° C. The RT reaction buffer was prepared fresh on a daily basis and consists of 125 μL 1.0 M EGTA, 125 μL d H2O, 110 μL 10% SDS, 50 μL 1.0 M Tris (pH 7.4), 50 μL 1.0 M DTT, and 40μ1.0 M MgCl2. These three solutions were mixed together in a ratio of 2 parts TTP, 1 part poly rA:oligo dT, and 1 part reaction buffer. Ten microliters of this reaction mixture was placed in a round bottom microtiter plate and 15 μL of virus containing supernatant was added and mixed. The plate was incubated at 37° C. in a water bath with a solid support to prevent submersion of the plate and incubated for 60 minutes. Following reaction, the reaction volume was spotted onto pieces of DE81 paper, washed 5 times for 5 minutes each in a 5% sodium phosphate buffer, 2 times for 1 minute each in distilled water, 2 times for 1 minute each in 70% ethanol, and then dried. Opti-Fluor O was added to each sample and incorporated radioactivity was quantitated utilizing a Wallace 1450 Microbetaplus liquid scintillation counter.
(§2) Control groups were not treated with the enzyme.

[2] = test system: ROJO (low passage HIV-1); assay: Study 4 sensitization, Turpin and standard macrophages: RT activity after Rojo challenge; assay type: cell-based; conditions: Rojo Sensitized
Method: Percent virus control (% VC) in the following tables is the mean RT activity (cpm) as a percentage of a virus control. Percent cell control (% CC) is the mean XTT absorbance as a percentage of a cell control.
The macrophage plates were then washed with HBSS multiple times. Fresh mixed pha blast PBMCs (5×10e4/well) were placed on the macrophage cells, allowed to incubate for 72 hours and then harvested and reset in a fresh 96 well plate. The PBMCs were then challenged overnight with the respective virus (IIIB or Rojo) at a standard MOI for that virus. The PBMCs were 5× in plate spin washed with DPBS, incubated 24 hours, at which time 5×10e4 fresh pha blast PBMCs/well were added. The culture was incubated an additional 6 days and then assayed for RT activity.
Where viability corrections were conducted, they were performed by dividing the RT CPM value by the toxicity absorbance in order to compensate for well to well variations noted in the cell titer toxicity noted.

[3] = test system: HIV-1; conditions: Assay #5
Method: as §1, §2

Question: For Hyaluronidase, which “% Control” value ([1]; 5 mg/mL) is on record?
Answer: 171.3%

Question: What about the “Mean RT” value ([1]; 5 mg/mL) of the same substance?
Answer: 30167.3 cpm

Question: What about the “% Control” value ([1]; 10 mg/mL) of the same substance?
Answer: 63.8%

Question: And the “Mean RT” value ([1]; 10 mg/mL)?
Answer: 11241 cpm

Question: And the “% Control” value ([1]; 20 mg/mL)?
Answer: 51.2%

Question: And the “Mean RT” value ([1]; 20 mg/mL)?
Answer: 9014.3 cpm

Question: What about the “% Control, Sum” value ([1]; Sum over 20, 10, 5 mg/mL) of the same substance?
Answer: 286.3%

Question: What about the “Mean RT, Sum” value ([1]; Sum over 20, 10, 5 mg/mL) of the same substance?
Answer: 50422.6 cpm

Question: What about the “RT activity % VC” value ([2]; 0.390625 μg/mL, Standard) of the same substance?
Answer: 50.4%

Question: What about the “RT activity % VC” value ([2]; 0.390625 μg/mL, Turpin) of the same substance?
Answer: 69.6%

Question: What about the “RT activity % VC” value ([2]; 0.78125 μg/mL, Standard) of the same substance?
Answer: 59.9%

Question: What about the “RT activity % VC” value ([2]; 0.78125 μg/mL, Turpin) of the same substance?
Answer: 48.6%

Question: And the “RT activity % VC” value ([2]; 1.5625 μg/mL, Turpin)?
Answer: 61.1%

Question: What about the “RT activity % VC” value ([2]; 3.125 μg/mL, Standard) of the same substance?
Answer: 55.8%

Question: What about the “RT activity % VC” value ([2]; 3.125 μg/mL, Turpin) of the same substance?
Answer: 45.6%

Question: What about the “RT activity % VC” value ([2]; 6.25 μg/mL, Standard) of the same substance?
Answer: 57.7%

Question: And the “RT activity % VC” value ([2]; 6.25 μg/mL, Turpin)?
Answer: 39.4%

Question: What about the “RT activity % VC” value ([2]; 25 μg/mL, Standard) of the same substance?
Answer: 21.0%

Question: What about the “RT activity % VC” value ([2]; 25 μg/mL, Turpin) of the same substance?
Answer: 15.5%

Question: And the “RT activity % VC” value ([2]; viability corrected, 0.097656 μg/mL, Standard)?
Answer: 66.0%

Question: What about the “RT activity % VC” value ([2]; viability corrected, 0.097656 μg/mL, Turpin) of the same substance?
Answer: 94.1%

Question: And the “RT activity % VC” value ([2]; viability corrected, 0.390625 μg/mL, Standard)?
Answer: 52.2%

Question: And the “RT activity % VC” value ([2]; viability corrected, 0.78125 μg/mL, Standard)?
Answer: 55.1%

Question: And the “RT activity % VC” value ([2]; viability corrected, 0.78125 μg/mL, Turpin)?
Answer: 56.9%

Question: What about the “RT activity % VC” value ([2]; viability corrected, 1.5625 μg/mL, Standard) of the same substance?
Answer: 57.0%

Question: And the “RT activity % VC” value ([2]; viability corrected, 1.5625 μg/mL, Turpin)?
Answer: 69.1%

Question: What about the “RT activity % VC” value ([2]; viability corrected, 3.125 μg/mL, Standard) of the same substance?
Answer: 53.4%

Question: And the “RT activity % VC” value ([2]; viability corrected, 3.125 μg/mL, Turpin)?
Answer: 55.5%

Question: What about the “RT activity % VC” value ([2]; viability corrected, 6.25 μg/mL, Standard) of the same substance?
Answer: 56.6%

Question: And the “RT activity % VC” value ([2]; viability corrected, 6.25 μg/mL, Turpin)?
Answer: 48.5%

Question: And the “RT activity % VC” value ([2]; viability corrected, 25 μg/mL, Turpin)?
Answer: 25.6%

Question: And the “% Control” value ([3]; 5 mg/mL)?
Answer: 65.1%

Question: And the “Mean RT” value ([3]; 5 mg/mL)?
Answer: 12442.7 cpm

Question: And the “% Control” value ([3]; 10 mg/mL)?
Answer: 58.3%

Question: And the “Mean RT” value ([3]; 10 mg/mL)?
Answer: 11156.3 cpm

Question: What about the “% Control” value ([3]; 20 mg/mL) of the same substance?
Answer: 18.5%

Question: What about the “% Control, Sum” value ([3]; Sum over 20, 10, 5 mg/mL) of the same substance?
Answer: 141.9%

Question: What about the “Mean RT, Sum” value ([3]; Sum over 20, 10, 5 mg/mL) of the same substance?
Answer: 23599 cpm
